Measurements from patent publication US12617781B2, “Utidelone semi-hydrated single crystal and preparation method therefor and use thereof” (Beijing Biostar Pharmaceuticals Co., Ltd., priority 2020, dated 2026).
Like-named read-outs stand apart in the source and are kept apart here.

Columns and labels:
[1] = Stability under high humidity; assay type: physicochemical
Source text: The semihydrate crystal obtained in Example 1 was placed under the condition of relative humidity of 90%±5% for 10 days, and samples were taken on the 5th and 10th days.
Utidelone anhydrous crystal was placed under the condition of relative humidity of 90±5% for 10 days. Samples were taken on the 5th and 10th days. The moisture content increased and the moisture absorption was obvious.

[2] = PK study on intravenous administration of the pharmaceutical composition containing Utidelone semihydrate crystal; assay type: in vivo; conditions: for MRT / AUC(0-t) / half-life: human, in vivo, iv, 40 mg/m2, intravenous infusion 40 mg/m2 once a day for 5 days; for AUC(0-t): read-out: AUC(0-24); for half-life: read-out: elimination half-life t½ in plasma (converted); for apparent volume of distribution / plasma clearance CL: intravenous infusion 40 mg/m2 once a day for 5 days
Experimental: Utidelone injection was prepared with Utidelone crystals (crystal A or mixed crystals containing crystal A) and 50% v/v absolute ethanol (USP), 30% v/v propylene glycol (USP) and 20% v/v polyoxyl castor oil 1 (Cremophor EL or ELP) as a solubilizer. The injection has low water content and high stability.

[3] = Stability under strong light (light box); assay type: physicochemical; conditions: 4500 lx±500 lx, 10 days
Source text: The semihydrate crystal obtained in Example 1 was placed in a light box, and placed for 10 days under the condition that the light intensity was 4500 lx±500 lx.

[4] = Stability in 0.1N hydrochloric acid solution; assay type: physicochemical
Experimental: The semihydrate crystal obtained in Example 1 was placed in a 0.1N hydrochloric acid solution, and the crystal was stable: no obvious degradation impurities were produced. Solubility >5 mg/ml.

Solubility test = assay type: physicochemical; conditions: thermodynamic from solid
[5] = Stability test of the semihydrate crystal under storage conditions (temperature); assay type: physicochemical
Experimental: Stability test: The stability test of the semihydrate crystal was carried out under the following conditions:
(§1) Storage condition 1: 2-25° C., stored in a sealed state for more than 3 years, confirmed by NMR, HPLC, X-ray powder diffraction and infrared spectrum analysis, etc., the semihydrate crystal was stable (no changes in content, no impurities due to degradation, no changes in appearance and physicochemical properties).
as §1, with “Condition 2: 25°” for “condition 1: 2-25°”, “60%±10% RH, unsealed storage” for “stored in a sealed state”, “days, after the sample was continued to be stored at 25° C. for 1 year, it was” for “years,”
as §1, with “3: Stored” for “1: 2-25° C., stored”, “state at 40° C.” for “state”, “2 years. It was” for “3 years,”
as §1, with “Condition 4: Stored at 60° C.” for “condition 1: 2-25° C., stored in a sealed state”, “1 year. It was” for “3 years,”

[6] = relative humidity 90%±5%, 10 days, samples on 5th and 10th days
[7] = high humidity conditions (summary statement)

In the case of `C/C1=C/C[C@@H](/C(C)=C/c2csc(C)n2)OC(=O)C[C@H](O)C(C)(C)C(=O)[C@H](C)[C@@H](O)[C@@H](C)CCC1` [Utidelone anhydrous crystal], the Moisture content [1, 6] is reported as “increased” and the Moisture absorption ([1]; relative humidity 90±5%, 10 days, samples on 5th and 10th days) is reported as “obvious”.

In the case of `C/C1=C/C[C@@H](/C(C)=C/c2csc(C)n2)OC(=O)C[C@H](O)C(C)(C)C(=O)[C@H](C)[C@@H](O)[C@@H](C)CCC1` [Utidelone], the “Accumulation in the body after continuous administration” value ([2]; 40 mg/m2 once a day for 5 days, first vs last administration) is reported as “did not accumulate”, the MRT ([2]; 1st day) is reported as 4.5 ± 0.8 h and the AUC(0-t) ([2]; 1st day) is reported as 4180 ± 1010 ng·h/mL. The half-life ([2]; 1st day) was 8.6 ± 0.1 h, the MRT ([2]; 5th day) was 5.1 ± 0.7 h and the AUC(0-t) ([2]; 5th day) was 4550 ± 1630 ng·h/mL. For the same compound, the half-life ([2]; 5th day) was 8.2 ± 1.1 h, the “apparent volume of distribution” value ([2]; 1st day) was 114.0±35.2 L/m2 and the “plasma clearance CL” value ([2]; 1st day) was 9.2±2.7 L/h/m2. The “apparent volume of distribution” value ([2]; 5th day) was 109.1±62.6 L/m2 and the “plasma clearance CL” value ([2]; 5th day) was 8.9±3.9 L/h/m2.

For `C/C1=C/C[C@@H](/C(C)=C/c2csc(C)n2)OC(=O)C[C@H](O)C(C)(C)C(=O)[C@H](C)[C@@H](O)[C@@H](C)CCC1` [semihydrate crystal], the Stability [1, 7] was “very stable”, the Water content [1, 7] was “does not change significantly” and the Moisture content [1, 6] was “basically unchanged”. The “Stability (content, degradation impurities, appearance, physicochemical properties)” value [1, 6] was “stable”, the Moisture content [3] was “basically unchanged” and the “Stability (content, degradation impurities, appearance, physicochemical properties)” value [3] was “stable”. For the same compound, the “Stability (degradation impurities)” value [4] was “stable”, the solubility (Solubility test; 0.1N hydrochloric acid solution, simulated gastric fluid) was over 5 mg/mL and the solubility (Solubility test; 50% ethanol, 30% propylene glycol, 20% castor oil, organic solvent or mixture) was over 100 mg/mL. It also gave a solubility (Solubility test; DMSO, organic solvent or mixture) of over 50 mg/mL, a solubility (Solubility test; benzyl alcohol, organic solvent or mixture) of over 50 mg/mL and a solubility (Solubility test; ethanol, organic solvent or mixture) of over 50 mg/mL. For the same compound, the solubility (Solubility test; methanol, organic solvent or mixture) was over 50 mg/mL, the solubility (Solubility test; propylene glycol, organic solvent or mixture) was over 50 mg/mL and the “Storage time without changes in substance” value ([5]; 40° C.) was “more than 3 years”. The “Storage time without changes in substance” value ([5]; 60° C.) was “more than 1 year”, the “Stability (content, degradation impurities, appearance, physicochemical properties)” value ([5]; Storage condition 1: 2-25° C., sealed, more than 3 years, NMR, HPLC, XRPD, IR) was “stable” and the “Stability (content, degradation impurities, appearance, physicochemical properties)” value ([5]; Storage condition 2: 25° C., 60%±10% RH, unsealed more than 3 days, then 25° C. for 1 year) was “stable”. The “Stability (content, degradation impurities, appearance, physicochemical properties)” value ([5]; Storage condition 3: sealed, 40° C., more than 2 years) was “stable” and the “Stability (content, degradation impurities, appearance, physicochemical properties)” value ([5]; Storage condition 4: 60° C., more than 1 year) was “stable”.
